From US20220050096A1, “ANALYTE-SENSITIVE PROBES AND CONTACT LENS FOR DIAGNOSIS OF OCULAR PATHOLOGIES” (University Of Maryland, Baltimore, priority 2020, published 2022)
One block for each molecule: values may come before it.

Assays:
[1] = Chloride-dependent intensity decay analysis of SPQ-C18 in MyDay contact lenses, 20 mM MOPS pH 7.3; type: physicochemical
Procedure: (§1) Fluorescence Spectroscopic Measurements. Fluorescence intensities and intensity decays were measured using a Varian™ Eclipse 4 spectrofluorometer and a FluoTime300 instrument from PicoQuant™ (Berlin, Germany) and analyzed with the EasyTau™ software. The excitation source was a 473 nm laser diode with a repetition rate of 40 MHZ and a pulse width less than 100 ps. In other embodiments, the excitation source for SG-PL was at 495 nm from a Solea™ supercontinuum laser (PicoQuant™, Germany) and a 375 nm laser diode (PDL 375, PicoQuant™), a repetition rate of 40 MHz, and a pulse width less than 100 ps. Some intensity and lifetime measurements for SG-PL (as indicated) were performed using Alba V confocal fluorescence lifetime microscopy, FLIM (ISS, Urbana, Ill.), with excitation source of a 473 nm laser diode with a repetition rate of 40 MHz and a pulse width near 250 ps.
Intensity decays were measured at the emission maximum with the band of 10 to 20 nm, analyzed in terms of the multi-exponential model:
I(t)=Σαi exp(−t/ti) (equation 1)
where ti are the individual decay times and αi the initial time-zero amplitudes. The mean decay time can be represented in two ways. The average lifetime is given by:
where Σαi=1.0 and Σfi=1.0. The term fi=αi τi is proportional to the fractional contribution of each component to the total intensity decay. The term τi/Σαi τi is the fractional contribution to the steady state emission. Here, we use the amplitude-weighted lifetime given by
which is appropriate when the emission is from a single fluorophore with a changing quantum yield. For a single exponential decay, the lifetime is given by τ=1.0/(knr+Γ) and the quantum yield is given by Q=Γ/(knr+Γ) where knr is the sum of all non-radiative decay rates and Γ is the radiative decay rate. The value of Γ is determined by the molecular extinction coefficient that remains constant under most conditions. For a single type of fluorophore with a constant value of Γ the normalized αi values represent the molecular fraction of each decay time component. The value of αi and τi were determined by non-linear least squares fitting using PicoQuant™ software.
Quenching by Chloride. Collisional quenching occurs, for example, when SPQ-C18 (also referred to as OD-MQB (N-Octadecyl-6-methoxyquinolinium bromide)) has a diffusion collision with a chloride ion. The intensities (I) and lifetimes (6) are analyzed using the Stern-Volmer equation,
SPQ-C18 was synthesized using 6-methoxy quinolinium (SPQ) and 1-bromooctadecane (C18) as described in the art. Lenses were labeled by incubation with 3 ml of a 1 μM solution of SPQ-C18 in methanol-water. SPQ-C18 bound rapidly to the Biofinity™ lenses. […] Unless stated otherwise, all spectral measurements conducted for the present study were performed in 20 mM MOPS buffer, 8 mM KCl, pH 7.2, at room temperature.

[2] = Sodium binding affinity (mid-point of response) and sodium-dependent intensity of probes bound to contact lenses; conditions: lens not named; read-out: binding constant after addition of linker, hydrophobic moiety and/or binding to the lenses
Procedure: as §1
Sodium Binding Affinity. The sodium affinity of the labeled lenses can be described in terms of the dissociation constant. The dissociation reaction for the probe complexed with Na+ can be written as
P—Na^+↔P+Na^+ (equation 4) […]
Binding affinity curves of SG-PL with sodium in Biofinity™ and MyDay™ lenses were produced by plotting the normalized intensities with respect to the added sodium concentrations. The curves were measured by intensities at peak maximum (FIG. 38A) or amplitude-weighted lifetimes (FIG. 38B). […]

f1 ([1]; NaCl 0 mM): 0.074
f2 ([1]; NaCl 0 mM): 0.191
f3 ([1]; NaCl 0 mM): 0.735
α1 ([1]; NaCl 0 mM): 0.560
α2 ([1]; NaCl 0 mM): 0.187
α3 ([1]; NaCl 0 mM): 0.253
τ1 ([1]; NaCl 0 mM): 1.03 ns
τ2 ([1]; NaCl 0 mM): 8.00 ns
τ3 ([1]; NaCl 0 mM): 22.78 ns
τf ([1]; NaCl 0 mM): 18.36 ns
τα ([1]; NaCl 0 mM): 7.83 ns
f1 ([1]; NaCl 10 mM): 0.078
f2 ([1]; NaCl 10 mM): 0.315
f3 ([1]; NaCl 10 mM): 0.607
α1 ([1]; NaCl 10 mM): 0.496
α2 ([1]; NaCl 10 mM): 0.290
α3 ([1]; NaCl 10 mM): 0.214
τ1 ([1]; NaCl 10 mM): 1.05 ns
τ2 ([1]; NaCl 10 mM): 7.22 ns
τ3 ([1]; NaCl 10 mM): 18.80 ns
τf ([1]; NaCl 10 mM): 13.76 ns
τα ([1]; NaCl 10 mM): 6.63 ns
f1 ([1]; NaCl 20 mM): 0.102
f2 ([1]; NaCl 20 mM): 0.306
f3 ([1]; NaCl 20 mM): 0.592
α1 ([1]; NaCl 20 mM): 0.554
α2 ([1]; NaCl 20 mM): 0.263
α3 ([1]; NaCl 20 mM): 0.183
τ1 ([1]; NaCl 20 mM): 1.12 ns
τ2 ([1]; NaCl 20 mM): 7.04 ns
τ3 ([1]; NaCl 20 mM): 19.59 ns
τf ([1]; NaCl 20 mM): 13.86 ns
τα ([1]; NaCl 20 mM): 6.05 ns
f1 ([1]; NaCl 40 mM): 0.126
f2 ([1]; NaCl 40 mM): 0.375
f3 ([1]; NaCl 40 mM): 0.499
α1 ([1]; NaCl 40 mM): 0.590
α2 ([1]; NaCl 40 mM): 0.275
α3 ([1]; NaCl 40 mM): 0.136
τ1 ([1]; NaCl 40 mM): 1.06 ns
τ2 ([1]; NaCl 40 mM): 6.78 ns
τ3 ([1]; NaCl 40 mM): 18.24 ns
τf ([1]; NaCl 40 mM): 11.78 ns
τα ([1]; NaCl 40 mM): 4.96 ns
f1 ([1]; NaCl 80 mM): 0.148
f2 ([1]; NaCl 80 mM): 0.373
f3 ([1]; NaCl 80 mM): 0.478
α1 ([1]; NaCl 80 mM): 0.601
α2 ([1]; NaCl 80 mM): 0.284
α3 ([1]; NaCl 80 mM): 0.115
τ1 ([1]; NaCl 80 mM): 1.05 ns
τ2 ([1]; NaCl 80 mM): 5.58 ns
τ3 ([1]; NaCl 80 mM): 17.70 ns
τf ([1]; NaCl 80 mM): 10.71 ns
τα ([1]; NaCl 80 mM): 4.25 ns
f1 ([1]; NaCl 140 mM): 0.177
f2 ([1]; NaCl 140 mM): 0.368
f3 ([1]; NaCl 140 mM): 0.455
α1 ([1]; NaCl 140 mM): 0.649
α2 ([1]; NaCl 140 mM): 0.253
α3 ([1]; NaCl 140 mM): 0.099
τ1 ([1]; NaCl 140 mM): 1.01 ns
τ2 ([1]; NaCl 140 mM): 5.39 ns
τ3 ([1]; NaCl 140 mM): 17.05 ns
τf ([1]; NaCl 140 mM): 9.92 ns
τα ([1]; NaCl 140 mM): 3.70 ns
f1 ([1]; NaCl 220 mM): 0.191
f2 ([1]; NaCl 220 mM): 0.425
f3 ([1]; NaCl 220 mM): 0.284
α1 ([1]; NaCl 220 mM): 0.636
α2 ([1]; NaCl 220 mM): 0.282
α3 ([1]; NaCl 220 mM): 0.081
τ1 ([1]; NaCl 220 mM): 0.94 ns
τ2 ([1]; NaCl 220 mM): 4.71 ns
τ3 ([1]; NaCl 220 mM): 14.81 ns
τf ([1]; NaCl 220 mM): 7.87 ns
τα ([1]; NaCl 220 mM): 3.13 ns
Structure (SMILES): CCCCCCCCCCCCCCCCCC[n+]1cccc2cc(OC)ccc21 [SPQ-C18, N-Octadecyl-6-methoxyquinolinium bromide]

Kd [2]: ~100 mM
Structure (SMILES): COc1cc(N2CCOCCOCCN(c3cc(OC)c(NC(=O)c4ccc(-c5c6cc(Cl)c(=O)cc-6oc6cc([O-])c(Cl)cc56)c(C(=O)[O-])c4)cc3OC)CCOCC2)c(OC)cc1NC(=O)c1ccc(-c2c3cc(Cl)c(=O)cc-3oc3cc([O-])c(Cl)cc23)c(C(=O)[O-])c1.C[N+](C)(C)C.C[N+](C)(C)C.C[N+](C)(C)C.C[N+](C)(C)C [SG]
